Data from patent publication US10301272B2, “Carboxamide or sulfonamide substituted thiazoles and related derivatives as modulators for the orphan nuclear receptor ROR[γ]” (Phenex Pharmaceuticals AG, priority 2012, dated 2019).
Like-named read-outs stand apart in the source and are kept apart here.

Experiments:
[1] = target: RORγ ligand binding domain (LBD) (Homo sapiens (Human), UniProt P51449); experiment: TR-FRET Activity Assay (ligand sensing assay, LANCE); details: for pIC50 (FRET): TR-FRET, interaction of RORγ-LBD with coactivator peptide
Text: The ligand-binding domain (LBD) of RORγ was expressed as fusion protein with GST in BL-21 (BL3) cells using the vector pDEST15. Cells were lysed by lysozyme-treatment and sonication, and the fusion proteins purified over glutathione sepharose (Pharmacia) according to the manufacturers instructions. For screening of compounds for their influence on the RORγ-peptide interaction, the LANCE technology (Perkin Elmer) was applied. This method relies on the binding dependent energy transfer from a donor to an acceptor fluorophor attached to the binding partner of interest. For ease of handling and reduction of background from compound fluorescence LANCE technology makes use of generic fluorophore labels and time resolved detection assays were done in a final volume of 25 μL in a 384 well plate, in a Tris-based buffer system (20 mM Tris-HCl pH 6.8; 60 mM KCl, 1 mM DTT; 5 mM MgCl2; 35 ng/μL BSA), containing 20-60 ng/well recombinantly expressed RORγ-LBD fused to GST, 200-600 nM N-terminally biotinylated peptide, 200 ng/well Streptavidin-xlAPC conjugate (Prozyme) and 6-10 ng/well Eu W1024-antiGST (Perkin Elmer). DMSO content of the samples was kept at 1%.
After generation of the Tris-based buffer system, the potentially RORγ modulating ligands were diluted. […] The LANCE signal was detected by a Perkin Elmer EnVision™ Multilabel Counter. […] Ligands that promote the complex formation induce a concentration-dependent increase in time-resolved fluorescent signal.
Y is the response. Y starts at Bottom and goes to Top with a sigmoidal shape.
This is identical to the “four parameter logistic equation”. The IC50 values are calculated using this equation.

[2] = target: RORγ (Homo sapiens, UniProt P51449); experiment: RORγ Gal4 Reporter Gene Assay; assay type: cell-based; details: for IC50: 293T cells
Method in brief: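 Cells at 5×10^5/well were transfected with RORγ fragments fused to the GAL4 DNA-binding domain (CMV promoter), a 5×GAL4-site firefly luciferase reporter and CMV-Renilla luciferase for normalization. About 4 h later serum-free MEM and compound were added (vehicle ≤0.1%). Cultures at 37 °C, 5% CO2; at least triplicates.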

[3] = firefly (FF) luciferase, read-out: pIC50 (FF) (converted)
[4] = renilla normalised (RENnorm) luciferase, read-out: pIC50 (REN) (converted)

RORγ ligand binding domain (LBD), sequence (P51449 269-508): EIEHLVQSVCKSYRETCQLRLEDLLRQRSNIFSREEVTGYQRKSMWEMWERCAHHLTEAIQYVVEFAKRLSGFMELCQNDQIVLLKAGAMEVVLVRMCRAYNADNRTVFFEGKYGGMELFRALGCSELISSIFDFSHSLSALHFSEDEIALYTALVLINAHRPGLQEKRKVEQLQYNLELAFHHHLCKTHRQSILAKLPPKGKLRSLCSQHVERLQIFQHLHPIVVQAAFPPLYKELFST
RORγ, sequence (P51449 whole entry, looked up, the tested form may be a part): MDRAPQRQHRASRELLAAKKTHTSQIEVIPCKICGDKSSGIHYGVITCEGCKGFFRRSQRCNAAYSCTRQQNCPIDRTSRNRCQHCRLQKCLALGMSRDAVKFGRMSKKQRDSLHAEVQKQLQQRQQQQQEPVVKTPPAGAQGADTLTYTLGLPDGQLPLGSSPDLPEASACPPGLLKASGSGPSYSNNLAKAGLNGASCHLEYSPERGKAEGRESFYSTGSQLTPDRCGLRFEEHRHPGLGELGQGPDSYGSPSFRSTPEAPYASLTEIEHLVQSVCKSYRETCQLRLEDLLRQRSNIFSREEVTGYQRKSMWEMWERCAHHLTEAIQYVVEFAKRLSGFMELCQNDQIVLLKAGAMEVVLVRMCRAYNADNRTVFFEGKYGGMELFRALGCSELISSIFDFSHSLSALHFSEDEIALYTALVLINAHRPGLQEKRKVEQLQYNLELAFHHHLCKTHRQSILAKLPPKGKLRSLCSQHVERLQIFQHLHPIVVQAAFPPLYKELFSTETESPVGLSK

Compound | pIC50 (FRET) [1] | pIC50 (FF) [2] | pIC50 (REN) [2] | IC50 [1] [nM] | IC50 [2, 3] [nM] | IC50 [2, 4] [nM]
COC(=O)C(C)(C)CCNC(=O)c1nc(CC2CCCCC2)c(-c2cc(C(C)(C)C)cc(C3(C)CC3)c2)s1 [Example 6, Methyl 4-(5-(3-(tert-butyl)-5-(1-methylcyclopropyl)phenyl)-4-(cyclohexylmethyl)thiazole-2-carboxamido)-2,2-dimethylbutanoate] | 6.7/6.2/6.3 | 6.7/6.2/6.3 | 6.7/6.2/6.3 |  |  | 
CC(C)(O)c1cc(-c2sc(C(=O)N[C@H]3C[C@H](C(=O)O)C3)nc2CC2CCCCC2)cc(C2(C)CC2)c1 [9/4] | 6.5/7.1/7.1 | 6.5/7.1/7.1 | 6.5/7.1/7.1 |  |  | 
CC1(c2cc(C(=O)NCC(F)(F)F)cc(-c3sc(C(=O)N[C@H]4C[C@H](C(=O)O)C4)nc3CC3CCCCC3)c2)CC1 [7/6] | 6.2/7.1/7.2 | 6.2/7.1/7.2 | 6.2/7.1/7.2 |  |  | 
C[C@H](NS(=O)(=O)c1ccc(-c2sc(C(=O)NC3CCOCC3)nc2CC2CCCCC2)c2ccccc12)C(F)(F)F [6/12] |  |  |  | 126 | 2 | 2
CC1(c2cc(-c3sc(C(=O)N[C@H]4C[C@H](C(=O)O)C4)nc3CC3CCCCC3)cc(C(F)(F)F)c2)CC1 [9/8] | 6.5/7.1/7.1 | 6.5/7.1/7.1 | 6.5/7.1/7.1 |  |  | 
Cc1c(S(=O)(=O)NC(C)(C)C)ccc(-c2sc(C(=O)N[C@H]3C[C@H](C(=O)O)C3)nc2CC2CCCCC2)c1C(F)(F)F [7/14] | 5.8/8.5/8.7 | 5.8/8.5/8.7 | 5.8/8.5/8.7 |  |  | 
CN1CCN(C(=O)c2nc(CC3CCCCC3)c(-c3ccc(S(=O)(=O)NC(C)(C)C)c4ccccc34)s2)CC1 [6/53] | 6.6/7.1/7.4 | 6.6/7.1/7.4 | 6.6/7.1/7.4 |  |  | 
CC(C)(C)NS(=O)(=O)c1ccc(-c2sc(C(=O)NCCC(C)(C)C(=O)O)nc2CC2CCCCC2)cc1C(F)(F)F [Example 9/1] | 6.5/7.4/7.4 | 6.5/7.4/7.4 | 6.5/7.4/7.4 |  |  | 
CC(C)(CNC(=O)c1nc(CC2CCCCC2)c(-c2cc(C(C)(C)C)cc(C3(C)CC3)c2)o1)C(=O)O [100/19] | 5.9/6.6/6.6 | 5.9/6.6/6.6 | 5.9/6.6/6.6 |  |  | 
CC(C)(C)NS(=O)(=O)c1ccc(-c2sc(C(=O)N[C@H]3C[C@H](C(=O)O)C3)nc2CC2CCCCC2)c2c1CCC2 [9/11] | 6.6/8.5/8.5 | 6.6/8.5/8.5 | 6.6/8.5/8.5 |  |  | 
CN(C(=O)c1nc(CC2CCCCC2)c(-c2ccc(S(=O)(=O)NC(C)(C)C)c3ccccc23)o1)C1CCOCC1 [100/4] | 6.6/7.1/7.3 | 6.6/7.1/7.3 | 6.6/7.1/7.3 |  |  | 
CC(C)(C)NS(=O)(=O)c1ccc(-c2oc(C(=O)NC3CCS(=O)(=O)CC3)nc2CC2CCCCC2)c2ccccc12 [100/6] | 6.4/8.5/8.4 | 6.4/8.5/8.4 | 6.4/8.5/8.4 |  |  | 
CC(C)(C)NS(=O)(=O)c1ccc(-c2oc(C(=O)N[C@H]3C[C@H](C(=O)NS(C)(=O)=O)C3)nc2CC2CCCCC2)c2ccccc12 [Example 102/1] | 6.1/6.7/6.7 | 6.1/6.7/6.7 | 6.1/6.7/6.7 |  |  | 
CC(C)(C)NS(=O)(=O)c1ccc(-c2sc(C(=O)N[C@H]3C[C@H](C(=O)O)C3)nc2CC2CCCCC2)c(C(F)F)c1Cl [7/16] | 6.5/8.5/8.5 | 6.5/8.5/8.5 | 6.5/8.5/8.5 |  |  | 
CC(C)(C)c1cc(-c2sc(S(=O)(=O)NC(=O)OCc3ccccc3)nc2CC2CCCCC2)cc(C2(C)CC2)c1 [Example 12, Benzyl (5-(3-(tert-butyl)-5-(1-methylcyclopropyl)phenyl)-4-(cyclohexylmethyl)thiazol-2-yl)sulfonylcarbamate] | 5.5 |  |  |  | > 20000 | > 20000
CC(C)(O)CNC(=O)c1nc(CC2CCCCC2)c(-c2ccc(S(=O)(=O)NC(C)(C)C)c3cccc(F)c23)s1 [19/14] | 6.4/6.8/6.9 | 6.4/6.8/6.9 | 6.4/6.8/6.9 |  |  | 
O=C(N[C@H]1C[C@H](C(=O)O)C1)c1nc(CC2CCCCC2)c(-c2ccc(OC(F)(F)F)c3ccccc23)s1 [7/21] |  |  |  | 2000 | 126 | 126
CC(C)(C)NS(=O)(=O)c1ccc(-c2oc(C(=O)NCC3(O)CCOCC3)nc2CC2CCCCC2)c2ccccc12 [100/5] | 6.3/8.1/8.2 | 6.3/8.1/8.2 | 6.3/8.1/8.2 |  |  | 
CC(C)(C)NS(=O)(=O)c1ccc(-c2oc(C(=O)NC3CCC(C)(C(=O)O)CC3)nc2CC2CCCCC2)c2ccccc12 (stereo not drawn) [100/22] | 5.9/6.8/7.0 | 5.9/6.8/7.0 | 5.9/6.8/7.0 |  |  | 
CC(C)(C)c1cc(-c2sc(C(=O)NCC3(C(N)=O)CCOCC3)nc2CC2CCCCC2)cc(C2(C)CC2)c1 [6/2] | 7.0/7.5/7.7 | 7.0/7.5/7.7 | 7.0/7.5/7.7 |  |  | 
CC1(C)COCCN1Cc1ccc(-c2sc(C(=O)NC3CCS(=O)(=O)CC3)nc2CC2CCCCC2)c2ccccc12 [7/26] | 6.8/7.7/7.9 | 6.8/7.7/7.9 | 6.8/7.7/7.9 |  |  | 
CC(O)c1c(S(=O)(=O)NC(C)(C)C)ccc(-c2sc(C(=O)N3CC4(CCS(=O)(=O)CC4)C3)nc2CC2CCCCC2)c1Cl (stereo not drawn) [21/10] | 5.9/6.7/6.7 | 5.9/6.7/6.7 | 5.9/6.7/6.7 |  |  | 
CCNS(=O)(=O)c1ccc(-c2sc(C(=O)NCC(C)(C)O)nc2CC2CCCCC2)c(Cl)c1Cl [Example 18, 4-(Cyclohexylmethyl)-5-(2,3-dichloro-4-(N-ethylsulfamoyl)phenyl)-N-(2-hydroxy-2-methylpropyl)thiazole-2-carboxamide] | 6.9/8.1/8.0 | 6.9/8.1/8.0 | 6.9/8.1/8.0 |  |  | 
CC(C)(C)NS(=O)(=O)c1ccc(-c2sc(C(=O)NC3CSC3)nc2CC2CCCCC2)cc1C(C)(C)O [6/24] | 7.3/7.9/8.0 | 7.3/7.9/8.0 | 7.3/7.9/8.0 |  |  | 
CC(C)(C)NS(=O)(=O)c1ccc(-c2sc(C(=O)NC3CCS(=O)(=O)CC3)nc2-c2ccccc2)c2ccccc12 [Example 300/1] | 7.2/7.8/7.9 | 7.2/7.8/7.9 | 7.2/7.8/7.9 |  |  | 
COC(c1nc(C(=O)N[C@H]2C[C@H](C(=O)O)C2)sc1-c1ccc(S(=O)(=O)NC(C)(C)C)c(Cl)c1Cl)C1CCCCC1 (stereo partly drawn) [19/4] | 6.0/7.3/7.2 | 6.0/7.3/7.2 | 6.0/7.3/7.2 |  |  | 
CC(C)(O)CNC(=O)c1nc(CC2CCCCC2)c(-c2ccc(S(=O)(=O)NC3(C(N)=O)CC3)c3ccccc23)s1 [8/3] | 6.4/7.5/7.6 | 6.4/7.5/7.6 | 6.4/7.5/7.6 |  |  | 
CC(C)(C)NS(=O)(=O)c1ccc(-c2sc(C(=O)NC3CCS(=O)(=O)CC3)nc2Cc2ccccc2)c2ccccc12 [Example 300, 4-Benzyl-5-(4-(N-(tert-butyl)sulfamoyl)naphthalen-1-yl)-N-(1,1-dioxidotetrahydro-2H-thiopyran-4-yl)thiazole-2-carboxamide] | 7.1/8.2/8.4 | 7.1/8.2/8.4 | 7.1/8.2/8.4 |  |  | 
